According to patent publication US4168206A, “Impregnated disk method for testing antifungal susceptibility” (Philadelphia College of Osteopathic Medicine, priority 1977, dated 1979):

Tests used:
Geotrichum candidum [1] = test: MIC by impregnated disk method, Geotrichum candidum; assay type: cell-based; conditions: disk method
Procedure: (§1) Stock solutions of the antifungal agents to be tested are preferably prepared by diluting the antifungal agents in the proper nutrient medium. It is presently preferred to prepare dilutions in 10 ml of the proper medium to give the following final concentrations when applied to the disks (all quantities in micrograms per milliliter): 0.05, 0.08, 0.09, 0.1; 0.1 increment increases to 0.9, 1.0; 0.5 increment increases to 10.0; and 12.0, 14.0, 20.0, 25.0 and 50.0. Disks have been prepared by placing 0.05 ml of the above dilutions of antifungal agent containing medium on 6.5 mm diameter disks in 0.01 or 0.02 ml increments. The impregnated disks are then allowed to dry at a temperature preferably below about 10° C. […] The disks may also be dried by a lyophilization or freeze drying process.
(§2) To perform the tests in accordance with the present inventions, disks impregnated with various concentrations of antifungal agent and nutrient medium and a control disk impregnated only with the corresponding nutrient medium are placed on the fungus to be tested which has been applied to the non-nutrient medium. The disks are the inoculated non-nutrient medium are then incubated at a suitable temperature for a sufficient time to promote growth of the fungus. Any temperature is suitable if it will promote growth of the fungus without adversely affecting the fungus or the activity of the antifungal agent or agents tested. The time of incubation can be determined by observing the extent of growth around the control disk. […] The zones of growth or inhibition around the disks were read at 6, 12, 24, 36 and 48 hours after the disks were placed on the tested fungus.
(§3) The minimum inhibitory concentration is defined as the lowest concentration of antifungal agent which inhibits visible growth. […]
(§4) Several test disks and a control disk were placed in each petri dish containing the inoculated agar. The disks and petri dishes were then incubated at 29° C. and the minimum inhibitory concentration of the various concentrations of the antifungal agents were read at 6, 12, 24, 36 and 48 hours. […]

Trichosporon sp. [2] = test: MIC by impregnated disk method, Trichosporon sp.; assay type: cell-based; conditions: Trichosporon sp.; disk method
Procedure: as §1, §2, §3, §4

Cryptococcus neoformans [3] = test: MIC by broth dilution method, Cryptococcus neoformans; assay type: cell-based
Text: (§5) The preparation of the nutrient media, the antifungal agents and the fungi to be tested in the present invention are similar to those reported in S. Shadomy and A. Espinel-Ingroff, "Susceptibility Testing Of Antifungal Agents", Ch. 63, pp. 569-574 in E. H. Lennett, E. H. Spaulding, and J. P. Truant, Eds., Manual Of Clinical Microbiology, 2nd Ed., American Society for Microbiology, Washington, D.C. (1974). This publication describes the susceptibility testing of antifungal agents, namely, amphotericin B, nystatin and 5-fluoro-cytosine (5-FC), by the "broth dilution method" and the "semisolid agar dilution method". At pages 570-571, it is stated:
(§6) In 10 duplicate runs with each strain tested, the variation in minimum inhibitory concentration averaged ±0.05 μg/ml.
(§7) *Broth dilution method conducted in accordance with S. Shadomy and E.
(§8) Espinel-Ingroff, "Susceptibility Testing of Antifungal Agents", Ch. 63,
(§9) pp. 569-574 in E. H. Spaulding and J. P. Truant, Eds., Manual Of Clinical
(§10) Microbiology, 2nd Ed., American Society for Microbiology, Washington, […]

C. parapsilosis [4] = test: MIC by impregnated disk method, Candida parapsilosis; assay type: cell-based
Procedure: as §1, §2
(§11) The minimum inhibitory concentration is defined as the lowest concentration of antifungal agent which inhibits visible growth. The disks containing concentrations of antifungal agents below the minimum inhibitory concentration show circumscribed growth of the fungus around the disk. Disks containing concentrations of antifungal agent at or above the minimum inhibitory concentration show no circumscribed growth.
(§12) Clinical isolates of various fungi listed in Table 1 were obtained from different patients diagnosed as having fungal infections. The fungal inocula were prepared by using a 24-48 hour cultures grown in yeast nitrogen base containing 1% glucose and 0.15% asparagine. After centrifuging, the supernatant was removed, the sedimented cells were washed twice with sterile distilled water and a cell suspension was adjusted to 80% transmission at 520 nm using a Beckman DB-GT grating spectrophotometer.
(§13) Sterile liquified 2% purified agar was placed in petri dishes and allowed to harden. The surface of the agar was inoculated with a sterile cotton swab saturated with a suspension of an organism. The uniformly swabbed plates were then allowed to dry.
(§14) Disks were prepared using the dilutions described above for amphotericin B, nystatin and 5-fluorocytosine. 0.05 ml of the dilutions of each antifungal agent diluted with the appropriate nutrient medium were pipetted on 6.5 mm diameter disks. The disks were dried at 4° C. after each application. Control disks were also prepared.
(§15) Several test disks and a control disk were placed in each petri dish containing the inoculated agar. The disks and petri dishes were then incubated at 29° C. and the minimum inhibitory concentration of the various concentrations of the antifungal agents were read at 6, 12, 24, 36 and 48 hours.
as §6

C. parapsilosis [5] = test: MIC by broth dilution method, Candida parapsilosis; assay type: cell-based
Text: as §5, §6, §7, §8, §9, §10

Cryptococcus neoformans [6] = test: MIC by impregnated disk method, Cryptococcus neoformans; assay type: cell-based
Procedure: as §1, §2, §11, §12, §13, §14, §15, §6

Torulopsis glabrata [7] = test: MIC by impregnated disk method, Torulopsis glabrata; assay type: cell-based; conditions: Torulopsis glabrata; disk method
Procedure: as §1, §2, §3, §4

[8] = cited from earlier work
C. tropicalis [9] = test: MIC by broth dilution method, Candida tropicalis; assay type: cell-based; conditions: C. tropicalis; broth dilution method
Text: as §5, §6, §7, §8, §9, §10

C. tropicalis [10] = test: MIC by impregnated disk method, Candida tropicalis; assay type: cell-based; conditions: C. tropicalis; disk method
Procedure: as §1, §2, §3, §4

Candida albicans [11] = test: MIC by impregnated disk method, Candida albicans; assay type: cell-based
Procedure: as §1, §2, §11, §12, §13, §14, §15, §6

Candida albicans [12] = test: MIC by broth dilution method, Candida albicans; assay type: cell-based
Text: as §5, §6, §7, §8, §9, §10

Torulopsis glabrata [13] = test: MIC by broth dilution method, Torulopsis glabrata; assay type: cell-based; conditions: Torulopsis glabrata; broth dilution method
Text: as §5, §6, §7, §8, §9, §10

Geotrichum candidum [14] = test: MIC by broth dilution method, Geotrichum candidum; assay type: cell-based; conditions: broth dilution method
Text: as §5, §6, §7, §8, §9, §10

Saccharomyces cerevisiae [15] = test: MIC by impregnated disk method, Saccharomyces cerevisiae; assay type: cell-based
Procedure: as §1, §2, §11, §12, §13, §14, §15, §6

Saccharomyces cerevisiae [16] = test: MIC by broth dilution method, Saccharomyces cerevisiae; assay type: cell-based
Text: as §5, §6, §7, §8, §9, §10

Trichosporon sp. [17] = test: MIC by broth dilution method, Trichosporon sp.; assay type: cell-based; conditions: Trichosporon sp.; broth dilution method
Text: as §5, §6, §7, §8, §9, §10

[18] = Cryptococcus neoformans isolate 1
[19] = Saccharomyces cerevisiae isolate 1

C[C@@H]1[C@H](O)[C@@H](C)/C=C/C=C/CC/C=C/C=C/C=C/C=C/C(O[C@H]2O[C@H](C)[C@@H](O)[C@H](N)[C@@H]2O)CC2O[C@](O)(CC(O)C(O)CCC(O)CC(O)CC(O)CC(=O)O[C@H]1C)CC(O)C2C(=O)O (stereo partly shown) [Nystatin, nystatin]
Minimum Inhibitory Concentration, Disk (Geotrichum candidum [1]): 5.00 µg/mL
Minimum Inhibitory Concentration, Disk (Trichosporon sp. [2]): 3.50 µg/mL
Minimum Inhibitory Concentration, Broth (Cryptococcus neoformans [3]; C. neoformans isolate 2): 3.00 µg/mL
Minimum Inhibitory Concentration, Broth (Cryptococcus neoformans [3]; [18]): 2.50 µg/mL
Minimum Inhibitory Concentration, Disk (C. parapsilosis [4]; C. parapsilosis isolate 1): 3.50 µg/mL
Minimum Inhibitory Concentration, Disk (C. parapsilosis [4]; C. parapsilosis isolate 2): 4.50 µg/mL
Minimum Inhibitory Concentration, Broth (C. parapsilosis [5]; C. parapsilosis isolate 1): 4.50 µg/mL
Minimum Inhibitory Concentration, Broth (C. parapsilosis [5]; C. parapsilosis isolate 2): 5.00 µg/mL
Minimum Inhibitory Concentration, Disk (Cryptococcus neoformans [6]; C. neoformans isolate 2): 3.00 µg/mL
Minimum Inhibitory Concentration, Disk (Cryptococcus neoformans [6]; [18]): 2.00 µg/mL
Minimum Inhibitory Concentration, Disk (Torulopsis glabrata [7]): 3.00 µg/mL
stability in acid ([8]; in the presence of acid): unstable in the presence of acid
thermal stability ([8]; upon incubation): subject to thermal destruction upon incubation
solubility in water ([8]; water): insoluble in water
Minimum Inhibitory Concentration, Broth (C. tropicalis [9]): 6.00 µg/mL
Minimum Inhibitory Concentration, Disk (C. tropicalis [10]): 5.50 µg/mL
Minimum Inhibitory Concentration, Disk (Candida albicans [11]; isolate 1): 1.50 µg/mL
Minimum Inhibitory Concentration, Disk (Candida albicans [11]; isolate 2): 4.50 µg/mL
Minimum Inhibitory Concentration, Disk (Candida albicans [11]; isolate 3): 1.50 µg/mL
Minimum Inhibitory Concentration, Disk (Candida albicans [11]; isolate 4): 3.50 µg/mL
Minimum Inhibitory Concentration, Disk (Candida albicans [11]; isolate 5): 4.00 µg/mL
Minimum Inhibitory Concentration, Disk (Candida albicans [11]; isolate 6): 6.50 µg/mL
Minimum Inhibitory Concentration, Disk (Candida albicans [11]; isolate 7): 0.30 µg/mL
Minimum Inhibitory Concentration, Broth (Candida albicans [12]; isolate 1): 1.50 µg/mL
Minimum Inhibitory Concentration, Broth (Candida albicans [12]; isolate 2): 5.00 µg/mL
Minimum Inhibitory Concentration, Broth (Candida albicans [12]; isolate 3): 1.50 µg/mL
Minimum Inhibitory Concentration, Broth (Candida albicans [12]; isolate 4): 3.50 µg/mL
Minimum Inhibitory Concentration, Broth (Candida albicans [12]; isolate 5): 4.00 µg/mL
Minimum Inhibitory Concentration, Broth (Candida albicans [12]; isolate 6): 6.00 µg/mL
Minimum Inhibitory Concentration, Broth (Candida albicans [12]; isolate 7): 0.20 µg/mL
Minimum Inhibitory Concentration, Broth (Torulopsis glabrata [13]): 4.50 µg/mL
Minimum Inhibitory Concentration, Broth (Geotrichum candidum [14]): 4.50 µg/mL
Minimum Inhibitory Concentration, Disk (Saccharomyces cerevisiae [15]; S. cerevisiae isolate 2): 1.00 µg/mL
Minimum Inhibitory Concentration, Disk (Saccharomyces cerevisiae [15]; [19]): 2.00 µg/mL
Minimum Inhibitory Concentration, Broth (Saccharomyces cerevisiae [16]; S. cerevisiae isolate 2): 2.00 µg/mL
Minimum Inhibitory Concentration, Broth (Saccharomyces cerevisiae [16]; [19]): 2.50 µg/mL
Minimum Inhibitory Concentration, Broth (Trichosporon sp. [17]): 3.00 µg/mL
